Assay results taken from patent US20250000043A1, “NON-TRANSGENIC SUNFLOWER PLANTS HAVING INCREASED TOLERANCE TO HERBICIDES” (BASF Agricultural Solutions Seed US LLC, priority 2021, published 2025).
Read-outs that look alike come from different tables or passages of the source.

Columns and labels:
Type in all cases: biochemical, sunflower
[1] = target: PPO2_F383I mutant PPO2 enzyme (Helianthus annuus, UniProt A0A251TWC2, F383I); experiment: In vitro PPO inhibition assay, mutant enzyme (Example 5)
Chain of PPO2_F383I mutant PPO2 enzyme (Helianthus annuus, UniProt A0A251TWC2, F383I) (A0A251TWC2 entry or part of it F383I): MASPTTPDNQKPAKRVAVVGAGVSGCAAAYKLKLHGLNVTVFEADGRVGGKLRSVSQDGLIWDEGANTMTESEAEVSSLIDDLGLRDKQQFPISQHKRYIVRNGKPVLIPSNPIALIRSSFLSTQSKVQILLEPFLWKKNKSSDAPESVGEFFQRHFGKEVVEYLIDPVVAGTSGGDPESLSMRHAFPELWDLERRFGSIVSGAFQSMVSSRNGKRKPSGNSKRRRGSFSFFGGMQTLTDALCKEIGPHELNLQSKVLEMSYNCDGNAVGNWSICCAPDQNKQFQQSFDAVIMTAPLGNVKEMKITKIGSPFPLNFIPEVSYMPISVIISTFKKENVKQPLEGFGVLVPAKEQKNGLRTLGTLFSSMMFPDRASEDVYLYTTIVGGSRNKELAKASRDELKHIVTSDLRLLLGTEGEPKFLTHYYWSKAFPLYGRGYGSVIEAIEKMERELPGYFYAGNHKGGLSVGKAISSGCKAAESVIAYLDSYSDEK
Excerpt: (§1) To test whether the PPO2_F383I is the main cause of the observed saflufenacil tolerance, we used an in vitro to compare the inhibition potency (IC50) of different PPO inhibiting herbicides between wild-type and mutant PPO2 enzyme. The in vitro assay assesses the oxidation of protoporphyrinogen IX to protoporphyrin IX, catalyzed by the PPO enzyme. Both the wild type and mutant PPO2 proteins were heterologously expressed in E. coli and purified. Purified protein was mixed with different concentrations of the herbicide ranging from 10^−5M to 10^−11M and protein activity was measured. Protein activity is defined as the fluorescence per minute that the reaction generates. In the reaction, the purified PPO enzyme is mixed with substrate protoporphyrinogen IX and the herbicide. The product of the reaction is excited at 405 nm and produces a fluorescence at 630 nm which we detect. IC50 (in Mol) and tolerance factor were calculated.

[2] = test system: PPO2_F383I mutant PPO2 enzyme; experiment: as above; conditions: PPO2_F383I versus wild type IC50
Excerpt: as §1

wild-type PPO2 enzyme = wild-type PPO2 enzyme (Helianthus annuus, UniProt A0A251TWC2); experiment: In vitro PPO inhibition assay, wild type enzyme (Example 5)
Chain of wild-type PPO2 enzyme (A0A251TWC2 entry or part of it): as the sequence (A0A251TWC2 entry or part of it F383I) above, with I383F counted along it
Excerpt: as §1

Compound	IC50 [1]	Tolerance factor [2]	IC50 (wild-type PPO2 enzyme)	IC50 ([1]; purified enzyme expressed in E. coli, herbicide 10^-5 M to 10^-11 M, read-out: PPO2_F383I IC50)	IC50 (wild-type PPO2 enzyme; purified enzyme expressed in E. coli, herbicide 10^-5 M to 10^-11 M, read-out: Wild type IC50)
C#CCN1C(=O)C(F)(F)Oc2cc(F)c(-n3c(=O)n(C)c(=S)n(C)c3=O)cc21 [Trifludimoxazin (Tirexor ™), 1,5-dimethyl-6-thioxo-3-(2,2,7-trifluoro-3-oxo-4-(prop-2-ynyl)-3,4-dihydro-2H-benzo[b][1,4]oxazin-6-yl)-1,3,5-triazinane-2,4-dione]	4560 nM	3257	1.4 nM		
COC(=O)CCNC(=O)C(C)Sc1cc(-n2c(=O)cc(C(F)(F)F)n(C)c2=O)c(F)cc1Cl (stereo not drawn) [Tiafenacil]		1398		1300 nM	0.93 nM
